Test results from patent EP0054974A1, “Imidazolylpropanol compounds and their acid addition salts, and production and use thereof” (SUMITOMO CHEMICAL COMPANY, LIMITED, priority 1980, dated 1982).
Converted amounts (≈) assume the structure as drawn.

Experiments:
[1] = tested on: Candida albicans MTU12001; assay: Antifungal activity in vitro, minimum inhibitory concentration on Sabouraud's agar medium; type: cell-based
Text: (§1) The antifungal activity of some representatives of the imidazolylpropanol compounds (I) in in vitro test is as shown below.

[2] = tested on: Candida albicans Ohta; assay: as above; type: cell-based
Text: as §1

[3] = tested on: Trichophyton rubrum; assay: as above; type: cell-based
Text: as §1

[4] = tested on: Candida albicans KB-8; assay: Antifungal activity in vivo (decrease of cells in the kidney of Candida-infected mice); details: for log reduction at 20 mg/kg: number of cells in kidney, 24 hours after infection; for Medicated group, number of cells in kidney: male DDY mice infected i.v. with Candida albicans KB-8, kidneys 24 hours after infection
Method: The in vivo test of the antifungal activity with the said representative ones of the imidazolylpropanol compounds (I) was carried out in the following manner:
Candida albicans KB-8 cultured on the Sabroud's. agar plate admixed with blood in a concentration of 5 % by weight at 30°C for 4 days was suspended in physiologically saline solution to make a number of cells of 10^7/ml. The suspension was intravenously injected through the tail vein into 5 week old male DDY mice at a dose of 0.2 ml per mouse. […]
After 24 hours from the infection, the animals were killed and the kidneys were taken out. Each kidney was admixed with sea sand and smashed. After diluting with physiologically saline solution to give 5 times in volume, the dilution was centrifuged at 900 rpm for 5 minutes. A certain amount of the supernatant was scattered on a Sabroud's agar plate and cultured at 37°C for 48 hours. Then, the number of colonies was counted, the number of cells per one gram of the kidney was calculated, and the difference between the calculated numbers in the medicated group and in the non-medicated group was expressed by a logarithmic value.

[5] = Candida albicans, KB8, po, dose 20 mg/kg per os, read-out: Medicated/Non-medicated (logarithmic value)

SMILES	MIC [1] [µg/mL]	MIC [2] [µg/mL]	MIC [3] [µg/mL]	log reduction at 20 mg/kg [4, 5]	Medicated group, number of cells in kidney ([4]; dose 20 mg/kg per os)	log reduction at 100 mg/kg ([4]; Candida albicans, KB8, po, 24 h, read-out: Medicated/Non-medicated (logarithmic value))	Medicated group, number of cells in kidney ([4]; dose 100 mg/kg per os)
OC(CSc1ccccc1)(Cn1ccnc1)c1ccc(Cl)cc1Cl (stereo not drawn)	0.15 (≈ 0.395 µM)	5 (≈ 13.2 µM)	10 (≈ 26.4 µM)	–	–	–	–
Cc1cccc(SCC(O)(Cn2ccnc2)c2ccc(Cl)cc2Cl)c1 (stereo not drawn)	0.15 (≈ 0.381 µM)	0.6 (≈ 1.53 µM)	5 (≈ 12.7 µM)	–	–	–	–
COc1ccc(SCC(O)(Cn2ccnc2)c2ccc(Cl)cc2Cl)cc1 (stereo not drawn)	0.3 (≈ 0.733 µM)	5 (≈ 12.2 µM)	20 (≈ 48.9 µM)	–	–	–	–
OC(CSc1ccc(F)cc1)(Cn1ccnc1)c1ccc(Cl)cc1Cl (stereo not drawn)	0.3 (≈ 0.755 µM)	2.5 (≈ 6.29 µM)	40 (≈ 101 µM)	–	–	–	–
OC(CSCc1ccccc1)(Cn1ccnc1)c1ccc(Cl)cc1Cl (stereo not drawn)	0.075 (≈ 0.191 µM)	2.5 (≈ 6.36 µM)	5 (≈ 12.7 µM)	–	–	–	–
OC(CSc1ccncc1)(Cn1ccnc1)c1ccc(Cl)cc1Cl (stereo not drawn)	10 (≈ 26.3 µM)	40 to 100 (≈ 105 to 263 µM)	20 (≈ 52.6 µM)	–	–	–	–
CC(C)SCC(O)(Cn1ccnc1)c1ccc(Cl)cc1Cl (stereo not drawn)	0.6 (≈ 1.74 µM)	40 (≈ 116 µM)	5 (≈ 14.5 µM)	–	–	–	–
CC(C)CCOCC(O)(Cn1ccnc1)c1ccc(Cl)cc1Cl (stereo not drawn)	0.6 (≈ 1.68 µM)	40 (≈ 112 µM)	5 (≈ 14 µM)	–	–	–	–
OC(COCc1ccccc1)(Cn1ccnc1)c1ccc(Cl)cc1Cl (stereo not drawn)	10 (≈ 26.5 µM)	40 (≈ 106 µM)	0.6 (≈ 1.59 µM)	–	–	–	–
OC(COCCc1ccccc1)(Cn1ccnc1)c1ccc(Cl)cc1Cl (stereo not drawn)	0.6 (≈ 1.53 µM)	40 (≈ 102 µM)	2.5 (≈ 6.39 µM)	–	–	–	–
OC(COCCSc1ccccc1)(Cn1ccnc1)c1ccc(Cl)cc1Cl (stereo not drawn)	1.25 (≈ 2.95 µM)	20 (≈ 47.2 µM)	5 (≈ 11.8 µM)	–	–	–	–
OC(COc1ccccc1Cl)(Cn1ccnc1)c1ccc(Cl)cc1Cl (stereo not drawn)	1.25 (≈ 3.14 µM)	20 (≈ 50.3 µM)	5 (≈ 12.6 µM)	–	–	–	–
OC(CNC1CCCCC1)(Cn1ccnc1)c1ccc(Cl)cc1Cl (stereo not drawn)	–	–	–	1.27	8.91x10^3 cell/g	–	–
C=CCOCC(O)(Cn1ccnc1)c1ccc(Cl)cc1Cl (stereo not drawn) [CH2=CH-CH2-O-]	1.25 (≈ 3.82 µM)	40 to 100 (≈ 122 to 306 µM)	10 (≈ 30.6 µM)	–	–	–	–
CCCCOCC(O)(Cn1ccnc1)c1ccc(Cl)cc1Cl (stereo not drawn) [CH3-(CH2)3-O-, 3-n-butyloxy-2-(2,4-dichlorophenyl)-l-(imidazol-l-yl)-2-propanol]	5 (≈ 14.6 µM)	40 (≈ 117 µM)	0.6 (≈ 1.75 µM)	–	–	–	–
CCCCCCNCC(O)(Cn1ccnc1)c1ccc(Cl)cc1Cl (stereo not drawn) [CH3-(CH2)5-NH-]	–	–	–	1.52	1.75x10^3 cell/g	–	–
Clc1ccc(COC(Cn2ccnc2)c2ccc(Cl)cc2Cl)c(Cl)c1 (stereo not drawn) [Miconazole, 1-[2,4-Dichloro-β-(2,4-dichlorobenzyloxy)phenylethyl]imidazole, reference compound]	–	–	–	–	–	0.8	2.96x10^4 cell/g
OC(CNCc1ccccc1)(Cn1ccnc1)c1ccc(Cl)cc1Cl (stereo not drawn) [the 6th table, row 5]	–	–	–	1.6	4.17x10^3 cell/g	–	–
OCCNCC(O)(Cn1ccnc1)c1ccc(Cl)cc1Cl (stereo not drawn) [the 6th table, row 6]	–	–	–	1.58	1.91x10^3 cell/g	–	–
OC(CNCCN1CCOCC1)(Cn1ccnc1)c1ccc(Cl)cc1Cl (stereo not drawn) [the 6th table, row 7]	–	–	–	1.23	9.78x10^3 cell/g	–	–
OC(CNCc1ccco1)(Cn1ccnc1)c1ccc(Cl)cc1Cl (stereo not drawn) [the 7th table, row 3]	–	–	–	1.05	5.13x10^3 cell/g	–	–
OC(CNCC1CCCO1)(Cn1ccnc1)c1ccc(Cl)cc1Cl (stereo not drawn) [the 7th table, row 4]	–	–	–	1.01	5.62x10^3 cell/g	–	–
CN1CCN(CC(O)(Cn2ccnc2)c2ccc(Cl)cc2Cl)CC1 (stereo not drawn) [the 7th table, row 5]	–	–	–	1.59	8.32x10^3 cell/g	–	–
OC(CN1CCN(c2ccccc2)CC1)(Cn1ccnc1)c1ccc(Cl)cc1Cl (stereo not drawn) [the 7th table, row 6]	–	–	–	1.58	1.52x10^3 cell/g	–	–
OC(CN1CCN(Cc2ccccc2)CC1)(Cn1ccnc1)c1ccc(Cl)cc1Cl (stereo not drawn) [the 7th table, row 7]	–	–	–	1.15	4.09x10^3 cell/g	–	–

The next lines start with results.

MIC [1] [µg/mL]	MIC [2] [µg/mL]	MIC [3] [µg/mL]	SMILES	log reduction at 20 mg/kg [4, 5]	Medicated group, number of cells in kidney ([4]; dose 20 mg/kg per os)	log reduction at 100 mg/kg ([4]; Candida albicans, KB8, po, 24 h, read-out: Medicated/Non-medicated (logarithmic value))	Medicated group, number of cells in kidney ([4]; dose 100 mg/kg per os)
0.075 (≈ 0.209 µM)	1.25 (≈ 3.48 µM)	0.6 (≈ 1.67 µM)	CCCCSCC(O)(Cn1ccnc1)c1ccc(Cl)cc1Cl (stereo not drawn) [CH3-(CH2)3-S-]	–	–	–	–
1.25 (≈ 3.35 µM)	5 (≈ 13.4 µM)	1.25 (≈ 3.35 µM)	CCCCCSCC(O)(Cn1ccnc1)c1ccc(Cl)cc1Cl (stereo not drawn) [CH3-(CH2)4-S-]	–	–	–	–
0.3 (≈ 0.774 µM)	2.5 (≈ 6.45 µM)	0.6 (≈ 1.55 µM)	CCCCCCSCC(O)(Cn1ccnc1)c1ccc(Cl)cc1Cl (stereo not drawn) [CH3-(CH2)5-S-]	–	–	–	–
0.15 (≈ 0.361 µM)	1.25 (≈ 3.01 µM)	0.3 (≈ 0.722 µM)	CCCCCCCCSCC(O)(Cn1ccnc1)c1ccc(Cl)cc1Cl (stereo not drawn) [CH3-(CH2)7-S-]	–	–	–	–
40 to 100 (≈ 106 to 266 µM)	40 to 100 (≈ 106 to 266 µM)	–	OC(CNCc1ccccc1)(Cn1ccnc1)c1ccc(Cl)cc1Cl (stereo not drawn) [the 5th table, row 0]	–	–	–	–
40 to 100 (≈ 121 to 303 µM)	40 to 100 (≈ 121 to 303 µM)	40 to 100 (≈ 121 to 303 µM)	OCCNCC(O)(Cn1ccnc1)c1ccc(Cl)cc1Cl (stereo not drawn) [the 5th table, row 1]	–	–	–	–
40 to 100 (≈ 100 to 250 µM)	40 to 100 (≈ 100 to 250 µM)	40 to 100 (≈ 100 to 250 µM)	OC(CNCCN1CCOCC1)(Cn1ccnc1)c1ccc(Cl)cc1Cl (stereo not drawn) [the 5th table, row 2]	–	–	–	–
40 to 100 (≈ 109 to 273 µM)	40 to 100 (≈ 109 to 273 µM)	40 to 100 (≈ 109 to 273 µM)	OC(CNCc1ccco1)(Cn1ccnc1)c1ccc(Cl)cc1Cl (stereo not drawn) [the 5th table, row 3]	–	–	–	–
40 to 100 (≈ 108 to 270 µM)	40 to 100 (≈ 108 to 270 µM)	40 to 100 (≈ 108 to 270 µM)	OC(CNCC1CCCO1)(Cn1ccnc1)c1ccc(Cl)cc1Cl (stereo not drawn) [the 5th table, row 4]	–	–	–	–
2.5 (≈ 6.77 µM)	40 (≈ 108 µM)	40 to 100 (≈ 108 to 271 µM)	CN1CCN(CC(O)(Cn2ccnc2)c2ccc(Cl)cc2Cl)CC1 (stereo not drawn) [the 5th table, row 5]	–	–	–	–
5 (≈ 11.6 µM)	20 (≈ 46.4 µM)	0.6 (≈ 1.39 µM)	OC(CN1CCN(c2ccccc2)CC1)(Cn1ccnc1)c1ccc(Cl)cc1Cl (stereo not drawn) [the 5th table, row 6]	–	–	–	–
40 to 100 (≈ 89.8 to 225 µM)	40 to 100 (≈ 89.8 to 225 µM)	20 (≈ 44.9 µM)	OC(CN1CCN(Cc2ccccc2)CC1)(Cn1ccnc1)c1ccc(Cl)cc1Cl (stereo not drawn) [the 5th table, row 7]	–	–	–	–
